Experiment [1] has as its target T1, MT2 receptor (Homo sapiens, UniProt P49286).
T1 construct: expressed in transfected cells; host or cells: CHO-K1 cells (membranes)
T1 sequence (P49286 1-362): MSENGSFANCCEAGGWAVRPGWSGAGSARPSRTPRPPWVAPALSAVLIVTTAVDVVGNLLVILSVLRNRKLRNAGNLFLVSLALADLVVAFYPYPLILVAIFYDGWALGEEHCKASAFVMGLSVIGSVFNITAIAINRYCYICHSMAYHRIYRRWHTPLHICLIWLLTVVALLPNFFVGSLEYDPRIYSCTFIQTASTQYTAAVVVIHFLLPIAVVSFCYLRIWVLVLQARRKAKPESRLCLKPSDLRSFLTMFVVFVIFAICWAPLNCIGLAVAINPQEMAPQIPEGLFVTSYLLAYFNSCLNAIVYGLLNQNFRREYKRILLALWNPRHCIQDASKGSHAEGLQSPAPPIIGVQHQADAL
Briefly: Melatonin receptor MT2 binding assay, displacement of [125I]2-Iodomelatonin. Conditions: for inhibition at 0.015625 µg/mL: 0.015625 μg/mL; for inhibition at 0.03125 µg/mL: 0.03125 μg/mL; for inhibition at 0.0625 µg/mL: 0.0625 μg/mL; for inhibition at 0.125 µg/mL: 0.125 μg/mL; for inhibition at 0.25 µg/mL: 0.25 μg/mL; for inhibition at 1 µg/mL: 1 μg/mL; for inhibition at 2 µg/mL: 2 μg/mL; for inhibition at 4 µg/mL: 4 μg/mL; for inhibition at 8 µg/mL: 8 μg/mL; for inhibition against MT2 receptor: concentration range from 8 ug/mL to 0.015625 μg/mL.

Experiment [2] has as its target T2, MT1 receptor (Homo sapiens, UniProt P48039).
T2 construct: expressed in transfected cells; host or cells: CHO-K1 cells (membranes)
In words: Melatonin receptor MT1 binding assay, displacement of [125I]2-Iodomelatonin. Conditions: for inhibition at 0.015625 µg/mL: 0.015625 μg/mL; for inhibition at 0.03125 µg/mL: 0.03125 μg/mL; for inhibition at 0.0625 µg/mL: 0.0625 μg/mL; for inhibition at 0.125 µg/mL: 0.125 μg/mL; for inhibition at 0.25 µg/mL: 0.25 μg/mL; for inhibition at 0.5 µg/mL: 0.5 μg/mL; for inhibition at 1 µg/mL: 1 μg/mL; for inhibition at 2 µg/mL: 2 μg/mL; for inhibition at 4 µg/mL: 4 μg/mL; for inhibition at 8 µg/mL: 8 μg/mL; for inhibition against MT1 receptor: concentration range from 8 ug/mL to 0.015625 μg/mL. As to the method: Human recombinant melatonin receptors (MT1 and MT2) were expressed in CHO-K1 cells and resuspended in buffer. The membranes containing recombinant receptors were incubated with test compounds in combination with 0.05 nM [125I]2-lodomelatonin for 180 minutes at 25° C. Membranes were immobilized on filters before being washed and the [125I]2-Iodomelatonin was counted. Test compounds that bound to MT1 or MT2 in the same binding site as melatonin displaced [125I]2-lodomelatonin, reducing the count. […] 0.00021 μM Melatonin was used as a positive control to displace [125I]2-Iodomelatonin (Paul et al., 1999; Beresford et al., 1998).
All samples were dissolved in 1% DMSO.
A general note: Displacement assays read how much labelled ligand stays bound in the presence of the test substance.

Experiment [3] deals with Male BALB/C mice. Briefly: Sleep time induced by pentobarbital sodium (36 mg/kg i.p.) after 32 days of dosing. It is filed as in vivo. How it is done: Male BALB/C mice (18 g˜22 g) were randomly assigned to groups of vehicle control (sterile water); positive control group, melatonin 1 mg/kg BW (0.1 g/L); low dose group, a composition derived from enriched for one or more phenylpropanoid acids and benzoxazinoids 250 mg/kg BW (25 g/L in sterile water); middle dose group, a composition derived from enriched for one or more phenylpropanoid acids and benzoxazinoids 500 mg/kg BW (50 g/L in sterile water); and high dose group, a composition derived from enriched for one or more phenylpropanoid acids and benzoxazinoids 1000 mg/kg BW (100 g/L in sterile water). Each animal received the respective dose daily for 32 consecutive days. 15 min after the last dose, each group of mice was intraperitoneally injected with 36 mg/kg pentobarbital sodium (in 0.1 mL/10 g). The sleep time of each mouse was recorded and the difference of sleep time between a composition derived from enriched for one or more phenylpropanoid acids and benzoxazinoids-treated groups and vehicle control was determined.

Experiment [4] deals with Male BALB/C mice. In words: Sleep latency / sleeping incidence with subthreshold pentobarbital sodium (26 mg/kg i.p.) after 32 days of dosing. Conditions: 1 mg/kg. Format: in vivo. How it is done:
Male BALB/C mice (18 g˜22 g) were randomly assigned to groups of vehicle control (sterile water); positive control group, melatonin 1 mg/kg BW (0.1 g/L); low dose group, a composition derived from enriched for one or more phenylpropanoid acids and benzoxazinoids 250 mg/kg BW (25 g/L in sterile water); middle dose group, a composition derived from enriched for one or more phenylpropanoid acids and benzoxazinoids 500 mg/kg BW (50 g/L in sterile water); and high dose group, a composition derived from enriched for one or more phenylpropanoid acids and benzoxazinoids 1000 mg/kg BW (100 g/L in sterile water). Each animal received the respective dose daily for 32 consecutive days. Mice from each group were intraperitoneally injected with 26 mg/kg pentobarbital sodium (0.1 mL/10 g BW), 15 min after the last dose to induce subthreshold hypnosis. The numbers of mice that lose the reflex to turnover to the right side over 1 min after injection of pentobarbital sodium were recorded for 30 min. The incidence of sleeping mice was analyzed to compare the difference between the tested substance groups and vehicle control. Latency of sleep is the number of animals with loss of the righting reflex in duration of time elapsed after pentobarbital administrations. […] As a result, the subthreshold dose of pentobarbital was given to each mouse 15 min after the last dose of test materials to assess the effect of materials on sleep latency. Thirty minutes post pentobarbital injection, the number of mice with no reflex to turn over to the right side over the duration of 1 min was recorded. Data were reported as incidence of sleeping. […] These incidences were statistically significant for both the high dose of UP165 and melatonin compared to the vehicle control animals. In comparison, the incidence in the vehicle-treated group was only 20%. Positive trends (60% of mice both in the 250 and 500 mg/kg group) were also observed for the low and mid doses of UP165.

Experiment [5] concerns Male BALB/C mice. Briefly: Acute effect on sleep following a single oral administration. It is filed as in vivo. Particulars: single oral 1 mg/kg. As to the method:
Male BALB/C mice (18 g˜22 g) were randomly assigned to groups of vehicle control (sterile water); positive control group, melatonin 1 mg/kg BW (0.1 g/L); low dose group, a composition derived from enriched for one or more phenylpropanoid acids and benzoxazinoids 250 mg/kg BW (25 g/L in sterile water); middle dose group, a composition derived from enriched for one or more phenylpropanoid acids and benzoxazinoids 500 mg/kg BW (50 g/L in sterile water); and high dose group, a composition derived from enriched for one or more phenylpropanoid acids and benzoxazinoids 1000 mg/kgBW (100 g/L in sterile water). Mice were administered the respective treatment group and observed for 60 min monitor the direct impact of test compounds on sleep following a single oral administration. When naive mice are placed into a supine position, they instantaneously turn to the upright position. However, mice under the hypnotic dose of pentobarbital remain on the supine position for measurable amount of time. Sleeping was indexed as the disappearance of reflex to turnover to the right side, and mouse was considered asleep when the time to turn over to the side was over 30 s after mouse was treated with a composition derived from enriched for one or more phenylpropanoid acids and benzoxazinoids. In the current study, none of the treatment groups induce sleep following a single oral administration (Table 15).

Marks after values point to notes of the source that are not given here.

What is called inhibition is the relative decrease from the control value, in per cent.

T2 sequence (P48039 whole entry): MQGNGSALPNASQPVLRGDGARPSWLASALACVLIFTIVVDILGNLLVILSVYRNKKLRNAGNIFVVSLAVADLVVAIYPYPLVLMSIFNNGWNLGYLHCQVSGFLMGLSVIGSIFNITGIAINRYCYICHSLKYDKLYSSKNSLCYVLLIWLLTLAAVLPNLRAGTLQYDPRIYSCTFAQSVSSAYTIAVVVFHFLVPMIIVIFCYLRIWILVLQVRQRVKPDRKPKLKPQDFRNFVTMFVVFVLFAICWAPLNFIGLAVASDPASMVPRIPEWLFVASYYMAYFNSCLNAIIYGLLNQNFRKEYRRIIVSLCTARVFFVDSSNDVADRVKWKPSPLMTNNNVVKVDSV

3-methoxy-hydrocoumaric acid: the “MT2 receptor binding (inhibition)” value in experiment [1] (isolated compounds, 0.5 μg/mL) stood at 8.9%; in experiment [1] (isolated compounds, 2.5 μg/mL), 22.9%.
As to `COc1ccc2nc(O)oc2c1` [6-MBOA, 6-methoxy-2-benzoxazolol, reference compound], the inhibition at 0.0032 µM in experiment [2] (0.0032 μM) came to 2%. In addition, in experiment [2] (0.0064 μM), the inhibition at 0.0064 µM was determined as 3%. Moreover, the inhibition at 0.013 µM in experiment [2] (0.013 μM) was 8%. In experiment [2] (0.025 μM), the inhibition at 0.025 µM was 11%. For the same compound, the inhibition at 0.051 µM in experiment [2] (0.051 μM) was found to be 5%. The inhibition at 0.102 µM in experiment [2] (0.102 μM) turned out to be 1%. For the same compound, the inhibition at 0.204 µM in experiment [2] (0.204 μM) was found to be 7%. Also, the inhibition at 0.407 µM in experiment [2] (0.407 μM) amounted to 6%. Also, the inhibition at 0.815 µM in experiment [2] (0.815 μM) was 7%; in experiment [1] (0.815 μM), -12%. Moreover, the values for the inhibition at 1.63 µM in experiment [2] (1.63 μM) and in experiment [1] (1.63 μM) were 8% and -4%, respectively. Besides, in experiment [2] (at the concentrations tested (3.2 nM to 1.63 μM)), the “inhibition of 2-lodomelatonin binding to MT1” value is “did not inhibit”. For the same compound, the inhibition at 3.26 µM in experiment [1] (3.26 μM) is 8%. For the same compound, the inhibition at 6.52 µM in experiment [1] (6.52 μM) is 11%. For the same compound, the inhibition at 13.04 µM in experiment [1] (13.04 μM) came out at 15%. Also, the “inhibition of 2-lodomelatonin binding to MT2” value in experiment [1] (at the concentrations tested (0.815 to 13.04 μM)) is “did not inhibit”.
With `COc1cc(/C=C/C(=O)O)ccc1O` [Ferulic acid], the inhibition at 0.5 µg/mL in experiment [1] (isolated compounds, 0.5 μg/mL) is 2.6%. In addition, in experiment [1] (isolated compounds, 2.5 μg/mL), the inhibition at 2.5 µg/mL is 1.6%.
For `COc1ccc2c(c1)OC(O)C(=O)N2` (stereo not drawn) [HMBOA, 2-Hydroxy-7-methoxy-2H-1,4-benzoxazin-3(4H)-one], in that order: 3.9% and 28%.
`COc1ccc2c(c1)OC(O[C@@H]1O[C@H](CO)[C@@H](O)[C@H](O)[C@H]1O)C(=O)N2` (stereo partly drawn) [MW357, 2-(β-D-Glucopyranosyloxy)-7-methoxy-2H-1,4-benzoxazin-3(4H)-one]: in experiment [2], the inhibition at 0.015625 µg/mL was found to be 3%, the inhibition at 0.03125 µg/mL amounted to 1%, the inhibition at 0.0625 µg/mL is -4% and the inhibition at 0.125 µg/mL was -1%. Also, in experiment [2], the inhibition at 0.25 µg/mL is 0%, the inhibition at 0.5 µg/mL was -5%, the inhibition at 1 µg/mL was -2% and the inhibition at 2 µg/mL is -4%. Besides, in experiment [2], the inhibition at 4 µg/mL is -5%, the inhibition at 8 µg/mL came out at 0% and the “inhibition against MT1 receptor” value was “Neither compound show any inhibition”. Besides, in experiment [1], the inhibition at 0.015625 µg/mL amounted to 4%, the inhibition at 0.03125 µg/mL was 2%, the inhibition at 0.0625 µg/mL amounted to 1% and the inhibition at 0.125 µg/mL was -6%. In addition, in experiment [1], the inhibition at 0.25 µg/mL stood at 5%, the inhibition at 1 µg/mL was found to be 3%, the inhibition at 2 µg/mL came to 10% and the inhibition at 4 µg/mL worked out at 5%. Further, in experiment [1], the inhibition at 8 µg/mL turned out to be 3% and the “inhibition against MT2 receptor” value is on record as “Neither compound show any inhibition”. In addition, in experiment [1] (0.5 μg/mL), the inhibition at 0.5 µg/mL was 4%.
`COc1ccc2c(c1)OC(O[C@@H]1O[C@H](CO)[C@@H](O)[C@H](O)[C@H]1O)C(=O)N2OC` (stereo partly drawn) [MW387, 2-(β-D-Glucopyranosyloxy)-4,7-dimethoxy-2H-1,4-benzoxazin-3(4H)-one]: in experiment [2], the inhibition at 0.015625 µg/mL amounted to 2%, the inhibition at 0.03125 µg/mL was -3%, the inhibition at 0.0625 µg/mL was -6% and the inhibition at 0.125 µg/mL is -2%. Besides, in experiment [2], the inhibition at 0.25 µg/mL is 6%, the inhibition at 0.5 µg/mL was determined as 6%, the inhibition at 1 µg/mL came to 1% and the inhibition at 2 µg/mL is -1%. In experiment [2], the inhibition at 4 µg/mL was -5%, the inhibition at 8 µg/mL was 3% and the “inhibition against MT1 receptor” value is “Neither compound show any inhibition”. Further, in experiment [1], the inhibition at 0.015625 µg/mL was -4%, the inhibition at 0.03125 µg/mL was -6%, the inhibition at 0.0625 µg/mL is -2% and the inhibition at 0.125 µg/mL was -6%. Besides, in experiment [1], the inhibition at 0.25 µg/mL is -3%, the inhibition at 1 µg/mL was -2%, the inhibition at 2 µg/mL was 0% and the inhibition at 4 µg/mL is 3%. In addition, in experiment [1], the inhibition at 8 µg/mL came to 4% and the “inhibition against MT2 receptor” value was “Neither compound show any inhibition”. Also, the inhibition at 0.5 µg/mL in experiment [1] (0.5 μg/mL) is 7%.
In the case of `COc1ccc2[nH]cc(CCNC(C)=O)c2c1` [Melatonin], in experiment [3] (1 mg/kg), the “increase in sleep time compared to vehicle control” value was found to be 12.0 ± 1.3 min. The “Sleep Time” value in experiment [3] (1 mg/kg daily for 32 days, Mean ± SD) came to 42.6 ± 10.7 min. For the same compound, the Incidence of sleeping is given as 80%* in experiment [4], 80% in experiment [4] (listed as melatonin) and 0% in experiment [5]. Moreover, the “Sleeping No.” value in experiment [4] (of 15 mice) turned out to be 12; in experiment [5] (of 15 mice), 0.
With `O=C(O)CCc1ccc(O)cc1` [Phloretic acid], the inhibition at 5 µg/mL in experiment [1] (isolated compounds, 5 μg/mL) is 69%. Also, the inhibition at 25 µg/mL in experiment [1] (isolated compounds, 25 μg/mL) is 94%.
On to `O=C(O)/C=C/c1ccc(O)cc1` [p-coumaric acid], for which the inhibition at 0.5 µg/mL in experiment [1] (isolated compounds, 0.5 μg/mL) stood at 0.5%. Also, in experiment [1] (isolated compounds, 2.5 μg/mL), the inhibition at 2.5 µg/mL was found to be 6.7%.

Values taken from patent publication US20220387366A1, “Compositions for Regulating Homeostasis of Cortisol and Improving Sleep Quality and Methods of Use and Production Thereof” (Unigen, Inc., priority 2021, published 2022).
